Reference: patent publication US20210179569A1, “BENZAMIDE COMPOUNDS AND THEIR USE AS HERBICIDES II” (BASF SE, priority 2017, published 2021)

How the values were obtained:
Experiment in all cases: post-emergence greenhouse herbicidal test
Format in all cases: in vivo
Details in all cases: application rate 250 g/ha, 100 = complete destruction, 0 = no damage
[1] = system: ECHCG (Echinocloa crus-galli)
Text: (§1) The seeds of the test plants were sown separately for each species. For the post-emergence treatment, the test plants were first grown to a height of 3 to 15 cm, depending on the plant habit, and only then treated with the active ingredients which had been suspended or emulsified in water. For this purpose, the test plants were either sown directly and grown in the same containers, or they were first grown separately as seedlings and transplanted into the test containers a few days prior to treatment. Depending on the species, the plants were kept at 10-25° C. or 20-25° C., respectively. The test period extended over 2 to 4 weeks. During this time, the plants were tended, and their response to the individual treatments was evaluated. Evaluation was carried out using a scale from 0 to 100. 100 means no emergence of the plants, or complete destruction of at least the aerial moieties, and 0 means no damage, or normal course of growth. A good herbicidal activity is given at values of at least 70 and a very good herbicidal activity is given at values of at least 85. At an application rate of 250 g/ha the following compounds were tested in post-emergence tests against: ECHCG (Echinocloa crus-galli) AMARE (Amaranthus retroflexus) CHEAL (Chenopodium album)

[2] = system: AMARE (Amaranthus retroflexus)
Text: as §1

[3] = system: CHEAL (Chenopodium album)
Text: as §1

Cn1nnnc1NC(=O)c1cc(Cl)cc(NC(=O)N(C2CC2)C2CC2)c1Cl [Example 1, 2,5-dichloro-3-(dicyclopropylcarbamoylamino)-N-(1-methyltetrazol-5-yl)benzamide]
>80: herbicidal activity against ECHCG (scale from 0 to 100) [1] | herbicidal activity against AMARE (scale from 0 to 100) [2] | herbicidal activity against CHEAL (scale from 0 to 100) [3]

CN(CC(F)(F)F)C(=O)Nc1cc(Cl)cc(C(=O)Nc2nnnn2C)c1Cl [Example 2, 2,5-dichloro-3-[(2,2,2-trifluoroethyl)(methyl)carbamoylamino]-N-(1-methyltetrazol-5-yl)benzamide]
>80: herbicidal activity against ECHCG (scale from 0 to 100) [1] | herbicidal activity against AMARE (scale from 0 to 100) [2] | herbicidal activity against CHEAL (scale from 0 to 100) [3]
